Results as given in article PMC5119973 (Cancer Medicine, 2016).

Legend:
VEGFR3 = biological target: T1, VEGFR3 (Homo sapiens, UniProt P35916); test: VEGFR3 autophosphorylation in HuLECs stimulated with VEGF‐C (western blot); type: cell-based; conditions: VEGF‐C stimulation, 0.1% bovine serum albumin, estimated from western blots, read-out: Mean ± SD IC50
T1 construct: VEGFR3 autophosphorylation in HuLECs; endogenous in cells; host or cells: HuLEC
Procedure: (§1) Endothelial cell assays were performed as described previously 14. In brief, HuVECs and HuLECs were grown in EBM‐2 supplemented with growth factors (Lonza, Walkersville, MD). After serum starvation for 6 h in EBM‐2 containing 0.1% BSA, 2 × 10^5 cells were treated with various concentrations of each compound for 1 h before stimulation with VEGF‐A (50 ng/mL) or VEGF‐C (200 ng/mL) for 10 min. Cells were lysed, and total cell lysates were analyzed for inhibition of phosphorylation by western blot, using antibodies against total and phosphorylated VEGFR2 and VEGFR3, ERK1/2, and AKT. Signals were detected by […] luminescence (GE Healthcare Biosciences; Pittsburgh, PA).

BRAF = biological target: T2, BRAF (Homo sapiens, UniProt P15056); test: KINOMEscan active-site competitive binding assay; conditions: slash = two separate measurements
T2 construct: purchased DiscoveRx (KINOMEscan service)

FGFR2 = biological target: T3, FGFR2 (Homo sapiens, UniProt P21802); test: FGFR phosphorylation assay in SNU‐16 cells (western blot); type: cell-based; conditions: SNU‐16/FGFR2 cells, 0.1% bovine serum albumin, read-out: Mean ± SD IC50
T3 construct: FGFR2, but not FGFR1, is overexpressed in the SNU‐16 cell line; endogenous in cells
Procedure: (§2) VEGFR2 assays were performed in murine fibroblasts (NIH‐3T3) in the presence of 0.1 mg/mL human serum albumin. […] Substrate phosphorylation was determined from total cell lysates by enzyme‐linked immunosorbent assay. In addition, an FGFR phosphorylation assay was performed using a human gastric carcinoma cell line (SNU‐16), with pFGFR assessed by western blot. The PDGFRA phosphorylation assay was performed by DiscoverRx using the DiscoverRx PathHunter cell line, modified to express PDGFRA. […] The assay signal was generated using a detection reagent cocktail and measured by chemoluminescence 13. Both the PDGFRA and FGFR assays were performed in the presence of 0.1 mg/mL BSA.

KIT = KIT (Homo sapiens, UniProt P10721); test: Cellular kinase phosphorylation assay, M07e/KIT; type: cell-based; design: human acute megakaryoblastic leukemia cell line (M07e; wt KIT assay); host or cells: M07e; conditions: M07e/KIT cells; without serum; read-out: Mean ± SD IC50
FLT3^R834Q = biological target: T4, FLT3^R834Q (Homo sapiens, UniProt P36888, R834Q); test: KINOMEscan active-site competitive binding assay
T4 construct: purchased DiscoveRx

RAF1 = biological target: T5, RAF1 (Homo sapiens, UniProt P04049); test: KINOMEscan active-site competitive binding assay; conditions: slash = two separate measurements
T5 construct: purchased DiscoveRx

RET = biological target: T6, RET (Homo sapiens, UniProt P07949); test: KINOMEscan active-site competitive binding assay; conditions: slash = two separate measurements
T6 construct: purchased DiscoveRx

VEGFR2 [1] = biological target: T7, VEGFR2 (Homo sapiens, UniProt P35968); test: KINOMEscan active-site competitive binding assay; design: purchased DiscoveRx; conditions: slash = two separate measurements
FLT1 = biological target: T8, FLT1 (Homo sapiens, UniProt P17948); test: KINOMEscan active-site competitive binding assay; conditions: slash = two separate measurements
T8 construct: purchased DiscoveRx (KINOMEscan service)

KIT^D816H = biological target: T9, KIT^D816H (Homo sapiens, UniProt P10721, D816H); test: KINOMEscan active-site competitive binding assay
T9 construct: purchased DiscoveRx

PDGFRα = biological target: T10, PDGFRα (Homo sapiens, UniProt P16234); test: PDGFRA phosphorylation assay, PathHunter cell line U2OS/PDGFRA; type: cell-based; conditions: U2OS/PDGFRA cells; 0.1% bovine serum albumin; read-out: Mean ± SD IC50
T10 construct: host or cells: PathHunter cell line (U2OS/PDGFRA)
Procedure: as §2

RET^V804M = biological target: T11, RET^V804M (Homo sapiens, UniProt P07949, V804M); test: KINOMEscan active-site competitive binding assay
T11 construct: purchased DiscoveRx (KINOMEscan service)

KIT^D816V = biological target: T12, KIT^D816V (Homo sapiens, UniProt P10721, D816V); test: KINOMEscan active-site competitive binding assay
T12 construct: purchased DiscoveRx

KIT^V559D,V654A = biological target: T13, KIT^V559D,V654A (Homo sapiens, UniProt P10721, V559D/V654A); test: KINOMEscan active-site competitive binding assay
T13 construct: purchased DiscoveRx (KINOMEscan service)

VEGFR2 [2] = biological target: T7, VEGFR2; test: VEGFR2 autophosphorylation in HuVECs stimulated with VEGF‐A (western blot); type: cell-based; design: VEGFR2 autophosphorylation in HuVECs; endogenous in cells; host or cells: HuVEC; conditions: VEGF‐A stimulation, 0.1% bovine serum albumin, estimated from western blots, read-out: Mean ± SD IC50
Procedure: as §1

VEGFR2 [3] = biological target: T7, VEGFR2; test: VEGFR2 kinase phosphorylation assay in NIH‐3T3 cells; type: cell-based; conditions: 0.1 mg/mL human serum albumin, data not shown
Procedure: TIE‐2, wt KIT, and BRAF^V600E assays were performed by ProQinase (Freiburg, Germany). Cell lines used were Chinese hamster ovary (TIE‐2 assay), human acute megakaryoblastic leukemia cell line (M07e; wt KIT assay), and rat fibroblasts (RAT‐1; BRAF^V600E assay). VEGFR2 assays were performed in murine fibroblasts (NIH‐3T3) in the presence of 0.1 mg/mL human serum albumin. KIT^K642E assays were performed in a GIST cell line (GIST882) in the presence of 0.1 mg/mL BSA. Substrate phosphorylation was determined from total cell lysates by enzyme‐linked immunosorbent assay. In addition, an FGFR phosphorylation assay was performed using a human gastric carcinoma cell line (SNU‐16), with pFGFR assessed by western blot. The PDGFRA phosphorylation assay was performed by DiscoverRx using the DiscoverRx PathHunter cell line, modified to express PDGFRA. […] The assay signal was generated using a detection reagent cocktail and measured by chemoluminescence 13. Both the PDGFRA and FGFR assays were performed in the presence of 0.1 mg/mL BSA.

FGFRs = test: KINOMEscan active-site competitive binding assay; conditions: range among family members, data not shown
KIT^L576P = biological target: T14, KIT^L576P (Homo sapiens, UniProt P10721, L576P); test: KINOMEscan active-site competitive binding assay
T14 construct: purchased DiscoveRx

TIE‐2 = TIE‐2 (Homo sapiens, UniProt Q02763); test: KINOMEscan active-site competitive binding assay; design: purchased DiscoveRx (KINOMEscan service); conditions: data not shown
FLT3^N841I = biological target: T15, FLT3^N841I (Homo sapiens, UniProt P36888, N841I); test: KINOMEscan active-site competitive binding assay
T15 construct: purchased DiscoveRx

KIT^A829P = biological target: T16, KIT^A829P (Homo sapiens, UniProt P10721, A829P); test: KINOMEscan active-site competitive binding assay
T16 construct: purchased DiscoveRx
T16 sequence (P10721 26-976 A829P): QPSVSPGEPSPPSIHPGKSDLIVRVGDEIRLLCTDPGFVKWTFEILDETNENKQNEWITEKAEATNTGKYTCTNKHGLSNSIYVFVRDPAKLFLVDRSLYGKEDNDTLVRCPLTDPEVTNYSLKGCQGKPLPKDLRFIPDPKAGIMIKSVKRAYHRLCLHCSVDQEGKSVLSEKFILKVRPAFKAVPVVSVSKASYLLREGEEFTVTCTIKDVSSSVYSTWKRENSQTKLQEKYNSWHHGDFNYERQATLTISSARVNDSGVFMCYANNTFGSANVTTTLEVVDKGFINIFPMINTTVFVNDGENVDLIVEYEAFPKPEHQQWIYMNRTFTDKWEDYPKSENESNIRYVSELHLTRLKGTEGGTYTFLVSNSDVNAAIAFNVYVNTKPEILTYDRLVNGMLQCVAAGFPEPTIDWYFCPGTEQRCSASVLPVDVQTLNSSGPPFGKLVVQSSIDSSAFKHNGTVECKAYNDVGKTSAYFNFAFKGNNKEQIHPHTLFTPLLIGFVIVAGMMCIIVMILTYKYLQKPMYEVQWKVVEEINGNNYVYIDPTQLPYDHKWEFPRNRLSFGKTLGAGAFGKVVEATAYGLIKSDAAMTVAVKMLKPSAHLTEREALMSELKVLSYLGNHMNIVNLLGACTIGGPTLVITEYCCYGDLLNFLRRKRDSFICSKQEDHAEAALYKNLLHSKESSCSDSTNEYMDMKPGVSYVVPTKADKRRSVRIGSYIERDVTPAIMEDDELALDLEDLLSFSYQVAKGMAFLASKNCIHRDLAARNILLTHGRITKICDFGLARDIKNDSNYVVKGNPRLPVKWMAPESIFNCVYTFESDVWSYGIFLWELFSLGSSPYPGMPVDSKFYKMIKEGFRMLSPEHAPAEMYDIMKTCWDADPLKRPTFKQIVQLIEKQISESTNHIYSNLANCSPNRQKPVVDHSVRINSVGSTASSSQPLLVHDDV

T7 sequence (P35968 20-1356): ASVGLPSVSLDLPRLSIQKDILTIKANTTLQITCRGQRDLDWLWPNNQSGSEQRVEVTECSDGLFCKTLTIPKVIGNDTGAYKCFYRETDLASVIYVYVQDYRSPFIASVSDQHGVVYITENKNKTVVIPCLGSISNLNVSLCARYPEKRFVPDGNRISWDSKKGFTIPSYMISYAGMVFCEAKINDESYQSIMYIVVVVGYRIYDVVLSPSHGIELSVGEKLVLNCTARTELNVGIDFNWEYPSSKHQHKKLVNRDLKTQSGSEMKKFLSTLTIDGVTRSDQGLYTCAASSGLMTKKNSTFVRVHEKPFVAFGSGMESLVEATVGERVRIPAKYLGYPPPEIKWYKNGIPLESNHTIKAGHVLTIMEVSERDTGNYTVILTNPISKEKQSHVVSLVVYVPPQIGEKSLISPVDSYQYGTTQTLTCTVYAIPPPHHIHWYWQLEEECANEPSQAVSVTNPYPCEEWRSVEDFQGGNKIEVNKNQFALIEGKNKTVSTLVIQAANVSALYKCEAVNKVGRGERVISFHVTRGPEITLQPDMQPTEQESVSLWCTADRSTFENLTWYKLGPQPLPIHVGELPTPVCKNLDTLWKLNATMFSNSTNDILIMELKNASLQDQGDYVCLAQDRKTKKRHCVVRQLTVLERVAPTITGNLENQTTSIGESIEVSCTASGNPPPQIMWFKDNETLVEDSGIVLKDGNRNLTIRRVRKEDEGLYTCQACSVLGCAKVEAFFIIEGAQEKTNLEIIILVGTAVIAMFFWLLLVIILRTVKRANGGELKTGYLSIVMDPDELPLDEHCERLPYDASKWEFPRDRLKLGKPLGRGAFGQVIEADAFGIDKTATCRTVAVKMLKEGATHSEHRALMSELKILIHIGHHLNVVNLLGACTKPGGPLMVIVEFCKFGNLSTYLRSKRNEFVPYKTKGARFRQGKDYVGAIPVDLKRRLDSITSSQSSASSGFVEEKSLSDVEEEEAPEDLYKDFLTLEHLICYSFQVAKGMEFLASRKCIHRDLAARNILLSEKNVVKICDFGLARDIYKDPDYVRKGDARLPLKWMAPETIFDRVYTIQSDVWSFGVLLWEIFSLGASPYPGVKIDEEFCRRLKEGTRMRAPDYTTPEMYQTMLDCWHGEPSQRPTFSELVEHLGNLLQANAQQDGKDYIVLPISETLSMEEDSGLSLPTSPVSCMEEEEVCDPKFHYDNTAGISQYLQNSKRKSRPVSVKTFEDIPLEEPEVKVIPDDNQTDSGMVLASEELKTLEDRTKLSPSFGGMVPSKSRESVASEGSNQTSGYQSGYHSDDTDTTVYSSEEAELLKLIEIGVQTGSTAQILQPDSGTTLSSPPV
T8 sequence (P17948 27-1338): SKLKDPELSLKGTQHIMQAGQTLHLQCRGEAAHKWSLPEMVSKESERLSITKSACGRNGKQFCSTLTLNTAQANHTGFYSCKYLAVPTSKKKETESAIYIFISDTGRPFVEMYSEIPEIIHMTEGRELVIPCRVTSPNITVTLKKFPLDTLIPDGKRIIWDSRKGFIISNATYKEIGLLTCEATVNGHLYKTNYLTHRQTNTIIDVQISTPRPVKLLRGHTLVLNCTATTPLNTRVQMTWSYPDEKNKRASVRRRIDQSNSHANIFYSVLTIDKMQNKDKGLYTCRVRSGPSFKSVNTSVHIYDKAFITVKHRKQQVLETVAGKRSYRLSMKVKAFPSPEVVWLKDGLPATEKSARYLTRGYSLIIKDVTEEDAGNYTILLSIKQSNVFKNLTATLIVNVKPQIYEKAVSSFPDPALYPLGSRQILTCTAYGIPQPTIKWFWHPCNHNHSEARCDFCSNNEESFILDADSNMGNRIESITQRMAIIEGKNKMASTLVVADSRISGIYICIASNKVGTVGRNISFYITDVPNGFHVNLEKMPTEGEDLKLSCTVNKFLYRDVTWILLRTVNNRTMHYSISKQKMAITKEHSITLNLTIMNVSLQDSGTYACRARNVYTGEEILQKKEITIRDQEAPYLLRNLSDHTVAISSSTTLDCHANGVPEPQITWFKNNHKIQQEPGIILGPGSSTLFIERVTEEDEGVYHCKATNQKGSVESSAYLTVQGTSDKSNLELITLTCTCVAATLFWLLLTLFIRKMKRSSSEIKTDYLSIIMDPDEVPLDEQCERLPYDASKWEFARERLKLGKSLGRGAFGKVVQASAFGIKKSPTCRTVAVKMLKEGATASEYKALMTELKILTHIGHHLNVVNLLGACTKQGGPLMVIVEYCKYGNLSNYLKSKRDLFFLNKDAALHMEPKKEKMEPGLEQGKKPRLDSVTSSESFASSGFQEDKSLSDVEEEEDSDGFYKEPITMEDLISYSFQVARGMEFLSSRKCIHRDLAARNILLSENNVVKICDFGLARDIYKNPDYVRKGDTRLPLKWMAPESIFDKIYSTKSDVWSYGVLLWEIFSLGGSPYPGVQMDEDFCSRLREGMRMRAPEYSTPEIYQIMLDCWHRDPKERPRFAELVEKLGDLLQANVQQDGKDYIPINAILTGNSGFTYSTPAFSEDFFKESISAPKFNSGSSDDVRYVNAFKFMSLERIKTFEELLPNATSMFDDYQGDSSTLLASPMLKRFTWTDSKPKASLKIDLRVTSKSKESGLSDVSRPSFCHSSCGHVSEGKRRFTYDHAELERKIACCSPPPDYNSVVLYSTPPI
T12 sequence (P10721 26-976 D816V): as the sequence (P10721 26-976 A829P) above, with D791V, P804A counted along it
T6 sequence (P07949 29-1114): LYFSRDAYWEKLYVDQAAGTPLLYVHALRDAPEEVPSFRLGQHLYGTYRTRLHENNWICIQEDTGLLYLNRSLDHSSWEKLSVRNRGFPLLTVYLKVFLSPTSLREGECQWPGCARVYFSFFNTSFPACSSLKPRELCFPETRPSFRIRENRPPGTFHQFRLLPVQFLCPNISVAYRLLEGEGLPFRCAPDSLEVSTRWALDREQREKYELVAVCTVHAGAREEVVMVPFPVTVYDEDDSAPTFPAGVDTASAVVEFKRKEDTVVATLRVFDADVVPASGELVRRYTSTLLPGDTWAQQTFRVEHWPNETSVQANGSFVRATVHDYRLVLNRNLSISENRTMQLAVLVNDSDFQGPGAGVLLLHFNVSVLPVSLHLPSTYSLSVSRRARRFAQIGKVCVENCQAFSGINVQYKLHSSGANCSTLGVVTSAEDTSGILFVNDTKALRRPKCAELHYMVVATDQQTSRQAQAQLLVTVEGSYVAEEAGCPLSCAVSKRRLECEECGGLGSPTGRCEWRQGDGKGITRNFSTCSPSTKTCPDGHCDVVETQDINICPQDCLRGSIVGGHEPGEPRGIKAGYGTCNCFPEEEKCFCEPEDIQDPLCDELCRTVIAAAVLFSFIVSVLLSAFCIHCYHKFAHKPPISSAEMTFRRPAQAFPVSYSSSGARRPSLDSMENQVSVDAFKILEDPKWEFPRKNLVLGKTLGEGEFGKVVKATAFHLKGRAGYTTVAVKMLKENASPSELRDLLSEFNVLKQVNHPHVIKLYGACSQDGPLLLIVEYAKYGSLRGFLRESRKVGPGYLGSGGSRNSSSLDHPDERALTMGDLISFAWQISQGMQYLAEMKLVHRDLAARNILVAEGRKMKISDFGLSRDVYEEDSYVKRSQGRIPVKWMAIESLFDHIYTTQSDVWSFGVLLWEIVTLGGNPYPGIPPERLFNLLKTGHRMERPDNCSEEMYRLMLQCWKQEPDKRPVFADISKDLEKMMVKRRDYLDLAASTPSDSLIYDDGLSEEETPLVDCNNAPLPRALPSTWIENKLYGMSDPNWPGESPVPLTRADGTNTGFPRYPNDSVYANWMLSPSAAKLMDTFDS
T14 sequence (P10721 26-976 L576P): as the sequence (P10721 26-976 A829P) above, with L551P, P804A counted along it
T13 sequence (P10721 26-976 V559D/V654A): as the sequence (P10721 26-976 A829P) above, with V534D, V629A, P804A counted along it
T9 sequence (P10721 26-976 D816H): as the sequence (P10721 26-976 A829P) above, with D791H, P804A counted along it
KIT, sequence (P10721 26-976): as the sequence (P10721 26-976 A829P) above, with P804A counted along it
T11 sequence (P07949 29-1114 V804M): as the sequence (P07949 29-1114) above, with V776M counted along it

Structure (SMILES): CNC(=O)c1cc(Oc2ccc(NC(=O)Nc3ccc(Cl)c(C(F)(F)F)c3)c(F)c2)cc[n+]1[O-] [M‐2]
- IC50 (VEGFR3): ~4 nM
- Kd (BRAF): 24 nM
- IC50 (FGFR2): ~200 nM
- IC50 (KIT): 13 nM
- Kd (FLT3^R834Q): 240 nM
- Kd (RAF1): 130 nM
- Kd (RET): 7.6 nM
- Kd (VEGFR2 [1]): 29 nM
- Kd (FLT1): 23 nM
- Kd (KIT^D816H): 490 nM
- IC50 (PDGFRα): 44 nM
- Kd (RET^V804M): 20 nM
- Kd (KIT^D816V): 300 nM
- Kd (KIT^V559D,V654A): 51 nM
- IC50 (VEGFR2 [2]): ~4 nM
- Inhibition of VEGFR2 activity, potency relative to regorafenib (VEGFR2 [3]): higher potency than regorafenib
- Kd (FGFRs): 440 to 880 nM
- Kd (KIT^L576P): 17 nM
- Kd (TIE‐2): 790 nM
- Kd (FLT3^N841I): 34 nM
- Kd (KIT^A829P): 19 nM

Structure (SMILES): NC(=O)c1cc(Oc2ccc(NC(=O)Nc3ccc(Cl)c(C(F)(F)F)c3)c(F)c2)cc[n+]1[O-] [M‐5]
- IC50 (VEGFR3): ~16 nM
- Kd (BRAF): 17 nM
- IC50 (FGFR2): ~1000 nM
- IC50 (KIT): 110 nM
- Kd (FLT3^R834Q): 270 nM
- Kd (RAF1): 66 nM
- Kd (RET): 5.8 nM
- Kd (VEGFR2 [1]): 31 nM
- Kd (FLT1): 17 nM
- Kd (KIT^D816H): 460 nM
- IC50 (PDGFRα): 61 nM
- Kd (RET^V804M): 25 nM
- Kd (KIT^D816V): 310 nM
- Kd (KIT^V559D,V654A): 42 nM
- IC50 (VEGFR2 [2]): ~16 nM
- Inhibition of VEGFR2 activity, potency relative to regorafenib (VEGFR2 [3]): higher potency than regorafenib
- Kd (FGFRs): 790 to 1100 nM
- Kd (KIT^L576P): 9.1 nM
- Kd (TIE‐2): 1200 nM
- Kd (FLT3^N841I): 23 nM
- Kd (KIT^A829P): 19 nM
